Experimental data published in patent US20250324971A1, “HERBICIDAL DERIVATIVES” (SYNGENTA CROP PROTECTION AG, priority 2022, published 2025).

Experiments:
Format in all cases: in vivo
[1] = tested on: Setaria faberi (SETFA); experiment: Pre-Emergence Test (herbicidal, glasshouse pots); details: rate 250 g/ha, evaluated after 13 days, five-point scale
[2] = tested on: Echinochloa crus-galli (ECHCG); experiment: Pre-Emergence Test (herbicidal, glasshouse pots); details: rate 250 g/ha, evaluated after 13 days, five-point scale
[3] = tested on: Amaranthus retoflexus (AMARE); experiment: Pre-Emergence Test (herbicidal, glasshouse pots); details: rate 250 g/ha, evaluated after 13 days, five-point scale
[4] = tested on: Amaranthus palmeri (AMAPA); experiment: Pre-Emergence Test (herbicidal, glasshouse pots); details: rate 250 g/ha, evaluated after 13 days, five-point scale
[5] = tested on: Ipomoea hederacea (IPOHE); experiment: Pre-Emergence Test (herbicidal, glasshouse pots); details: rate 250 g/ha, evaluated after 13 days, five-point scale
[6] = tested on: Zea mays (ZEAMX); experiment: Pre-Emergence Test (herbicidal, glasshouse pots); details: rate 250 g/ha, evaluated after 13 days, five-point scale
[7] = tested on: Echinochloa crus-galli (ECHCG); experiment: Post-Emergence Test (herbicidal, glasshouse pots); details: rate 250 g/ha; evaluated after 13 days
Summary of the method: (§1)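 Damage after 13 days is given as a five-point score, where 5 means 81-100% and 1 means 0-20% injury. Seed-sown pots were treated by spray with the technical ingredient in aqueous acetone (50:50) with 0.5% Tween 20, dose expressed in g/ha.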

[8] = tested on: Ipomoea hederacea (IPOHE); experiment: Post-Emergence Test (herbicidal, glasshouse pots); details: rate 250 g/ha; evaluated after 13 days
Summary of the method: as §1

[9] = tested on: Zea mays (ZEAMX); experiment: Post-Emergence Test (herbicidal, glasshouse pots); details: rate 250 g/ha; evaluated after 13 days
Summary of the method: as §1

[10] = tested on: Setaria faberi (SETFA); experiment: Post-Emergence Test (herbicidal, glasshouse pots); details: rate 250 g/ha; evaluated after 13 days
Summary of the method: as §1

[11] = tested on: Amaranthus palmeri (AMAPA); experiment: Post-Emergence Test (herbicidal, glasshouse pots); details: rate 250 g/ha; evaluated after 13 days
Summary of the method: as §1

[12] = tested on: Amaranthus retoflexus (AMARE); experiment: Post-Emergence Test (herbicidal, glasshouse pots); details: rate 250 g/ha; evaluated after 13 days
Summary of the method: as §1

SMILES	percentage damage caused to the plant, SETFA [1]	percentage damage caused to the plant, ECHCG [2]	percentage damage caused to the plant, AMARE [3]	percentage damage caused to the plant, AMAPA [4]	percentage damage caused to the plant, IPHOE [5]	percentage damage caused to the plant, ZEAMX [6]	Post-Emergence Test ECHCG percentage damage (five-point scale) [7]	Post-Emergence Test IPHOE percentage damage (five-point scale) [8]	Post-Emergence Test ZEAMX percentage damage (five-point scale) [9]	Post-Emergence Test SETFA percentage damage (five-point scale) [10]	Post-Emergence Test AMAPA percentage damage (five-point scale) [11]	Post-Emergence Test AMARE percentage damage (five-point scale) [12]
CCc1cc(Oc2cc(=O)c(C(=O)O)c(-c3ccc(Cl)c(Cl)c3)n2CC)no1 [Compound 39, 2-(3,4-dichlorophenyl)-1-ethyl-6-(5-ethylisoxazol-3-yl)oxy-4-oxo-pyridine-3-carboxylic acid]	1 (1=0-20%)	1 (1=0-20%)	1 (1=0-20%)	1 (1=0-20%)	1 (1=0-20%)	0	1 (1=0-20%)	2 (2=21-40%)	0	1 (1=0-20%)	1 (1=0-20%)	1 (1=0-20%)
CCn1c(Oc2ccc(S(C)(=O)=O)cc2)cc(=O)c(C(=O)O)c1-c1ccc(Cl)c(Cl)c1 [Compound 40, 2-(3,4-dichlorophenyl)-1-ethyl-6-(4-methylsulfonyl-phenoxy)-4-oxo-pyridine-3-carboxylic acid]	2 (2=21-40%)	0	1 (1=0-20%)	1 (1=0-20%)	3 (3=41-60%)	0	1 (1=0-20%)	4 (4=61-80%)	1 (1=0-20%)	2 (2=21-40%)	2 (2=21-40%)	2 (2=21-40%)
CCn1c(Oc2ccc(C)c(F)c2)cc(=O)c(C(=O)O)c1-c1ccc(Cl)c(Cl)c1 [Compound 41, 2-(3,4-dichlorophenyl)-1-ethyl-6-(3-fluoro-4-methyl-phenoxy)-4-oxo-pyridine-3-carboxylic acid]	0	0	1 (1=0-20%)	0	2 (2=21-40%)	0	1 (1=0-20%)	3 (3=41-60%)	0	1 (1=0-20%)	2 (2=21-40%)	2 (2=21-40%)
CCn1c(Oc2ccc3nccnc3c2)cc(=O)c(C(=O)O)c1-c1ccc(Cl)c(Cl)c1 [Compound 42, 2-(3,4-dichlorophenyl)-1-ethyl-4-oxo-6-quinoxalin-6-yloxy-pyridine-3-carboxylic acid]	1 (1=0-20%)	1 (1=0-20%)	2 (2=21-40%)	2 (2=21-40%)	2 (2=21-40%)	0	1 (1=0-20%)	3 (3=41-60%)	1 (1=0-20%)	1 (1=0-20%)	1 (1=0-20%)	1 (1=0-20%)
CCn1c(Oc2cnsn2)cc(=O)c(C(=O)O)c1-c1ccc(Cl)c(Cl)c1 [Compound 43, 2-(3,4-dichlorophenyl)-1-ethyl-4-oxo-6-(1,2,5-thiadiazol-3-yloxy)pyridine-3-carboxylic acid]	1 (1=0-20%)	1 (1=0-20%)	1 (1=0-20%)	0	3 (3=41-60%)	0	2 (2=21-40%)	4 (4=61-80%)	0	2 (2=21-40%)	2 (2=21-40%)	1 (1=0-20%)
CCn1c(OC2CC2)cc(=O)c(C(=O)O)c1-c1ccc(Cl)c(Cl)c1 [Compound 45, 6-(cyclopropoxy)-2-(3,4-dichlorophenyl)-1-ethyl-4-oxo-pyridine-3-carboxylic acid]	1 (1=0-20%)	0	2 (2=21-40%)	1 (1=0-20%)	0	0	2 (2=21-40%)	3 (3=41-60%)	1 (1=0-20%)	3 (3=41-60%)	2 (2=21-40%)	1 (1=0-20%)
CCn1c(Oc2cc(C)on2)cc(=O)c(C(=O)O)c1-c1ccc(Cl)c(Cl)c1 [Compound 46, 2-(3,4-dichlorophenyl)-1-ethyl-6-(5-methylisoxazol-3-yl)oxy-4-oxo-pyridine-3-carboxylic acid]	1 (1=0-20%)	1 (1=0-20%)	2 (2=21-40%)	1 (1=0-20%)	2 (2=21-40%)	0	1 (1=0-20%)	3 (3=41-60%)	0	0	0	2 (2=21-40%)
C#CC(C)Oc1cc(=O)c(C(=O)O)c(-c2ccc(Cl)c(Cl)c2)n1CC (stereo not drawn) [Compound 49, 2-(3,4-dichlorophenyl)-1-ethyl-6-(1-methylprop-2-ynoxy)-4-oxo-pyridine-3-carboxylic acid]	1 (1=0-20%)	1 (1=0-20%)	1 (1=0-20%)	0	1 (1=0-20%)	0	0	1 (1=0-20%)	1 (1=0-20%)	0	4 (4=61-80%)	1 (1=0-20%)
CCn1c(Oc2ccc(F)nc2)cc(=O)c(C(=O)O)c1-c1ccc(Cl)c(Cl)c1 [Compound 52, 2-(3,4-dichlorophenyl)-1-ethyl-6-[(6-fluoro-3-pyridyl)oxy]-4-oxo-pyridine-3-carboxylic acid]	5 (5=81-100%)	4 (4=61-80%)	3 (3=41-60%)	2 (2=21-40%)	3 (3=41-60%)	5 (5=81-100%)	4 (4=61-80%)	4 (4=61-80%)	4 (4=61-80%)	4 (4=61-80%)	1 (1=0-20%)	4 (4=61-80%)
CCn1c(Oc2ccc(C)cc2)cc(=O)c(C(=O)O)c1-c1ccc(Cl)c(Cl)c1 [Compound 53, 2-(3,4-dichlorophenyl)-1-ethyl-6-(4-methylphenoxy)-4-oxo-pyridine-3-carboxylic acid]	1 (1=0-20%)	0	2 (2=21-40%)	0	1 (1=0-20%)	0	0	4 (4=61-80%)	1 (1=0-20%)	1 (1=0-20%)	4 (4=61-80%)	3 (3=41-60%)
